Measurements taken from the supplement of paper PMC8988213.

Columns and labels:
[1] = system: ID211 patient-derived PDAC 2D line (post-FOLFIRINOX); assay: normalised area under dose-response curve (viability relative to DMSO, 7 doses up to 10 µM) (fraction (AUC)); higher = less sensitive (more viability retained); conditions: 72 h; top dose: 10 µM
Method: (§1)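 Patient-derived 2D PDAC cells (ID188 pre-FOLFIRINOX, passage 5+27; ID211 post-FOLFIRINOX, passage 9+11), 1,500-3,000 cells/well in 96-well plates, were treated with a 415-compound Selleck library in seven concentrations (3-fold dilution series, top 10 µM) for 72 h. Viability was read by CellTiter-Glo ATP luminescence, normalised to the DMSO control, and the area under the dose-response curve was computed with the GRmetrics R package; a lower AUC means higher sensitivity.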

[2] = system: ID188 patient-derived PDAC 2D line (pre-FOLFIRINOX); assay: as above; conditions: 72 h; top dose: 10 µM
Method: as §1

| SMILES | normalised area under dose-response curve [1] | normalised area under dose-response curve [2] |
| --- | --- | --- |
| C/C(=N\NC(=S)N1CCC1)c1ccccn1 | 0.138 | 0.366 |
| C=CC(=O)N1CCC[C@@H](n2nc(-c3ccc(Oc4ccccc4)cc3)c3c(N)ncnc32)C1 | 0.71 | 0.794 |
| C=CC(=O)Nc1cccc(Oc2nc(Nc3ccc(N4CCN(C)CC4)cc3)nc3ccsc23)c1 | 0.75 | 0.921 |
| CC(=O)N1c2ccc(-c3ccc(C(=O)O)cc3)cc2[C@H](Nc2ccc(Cl)cc2)C[C@@H]1C | 0.732 | 0.815 |
| CC(=O)c1c(C)c2cnc(Nc3ccc(N4CCNCC4)cn3)nc2n(C2CCCC2)c1=O | 0.865 | 0.882 |
| CC(=O)c1cc([N+](=O)[O-])c(Sc2ccc(F)cc2F)s1 | 0.966 | 0.93 |
| CC(=O)c1cc([N+](=O)[O-])c(Sc2cccc(Cl)c2Cl)s1 | 0.848 | 0.98 |
| CC(C)(C#N)c1ccc(N2C(=O)OCc3cnc4ccc(-c5cnc6ccccc6c5)cc4c32)cc1 | 0.804 | 0.825 |
| CC(C)(C)c1nc(-c2cccc(NS(=O)(=O)c3c(F)cccc3F)c2F)c(-c2ccnc(N)n2)s1 | 0.932 | 0.738 |
| CC(C)N(CCCNC(=O)Nc1ccc(C(C)(C)C)cc1)C[C@H]1O[C@@H](n2ccc3c(N)ncnc32)[C@H](O)[C@@H]1O | 0.899 | 0.952 |
| CC(C)Oc1ccc(C(=O)N[C@H](CNC(=O)CN(C)C)Cc2ccc(-c3cn4cccc([C@H](C)O)c4n3)cc2)cc1Cl | 0.709 | 0.64 |
| CC(C)c1cc(C(=O)N2Cc3ccc(CN4CCN(C)CC4)cc3C2)c(O)cc1O | 0.458 | 0.665 |
| CCC(CC)CC1(C(=O)Nc2ccccc2SC(=O)C(C)C)CCCCC1 | 0.859 | 0.929 |
| CCc1cc(Nc2nccc(-c3c(-c4ccc(OC)c(C(=O)Nc5c(F)cccc5F)c4)nc4ccccn34)n2)c(OC)cc1N1CCC(N2CCN(S(C)(=O)=O)CC2)CC1 | 0.829 | 0.94 |
| CCc1cnn2c(NCc3ccc[n+]([O-])c3)cc(N3CCCC[C@H]3CCO)nc12 | 0.161 | 0.426 |
| CCn1c(-c2nonc2N)nc2c(C#CC(C)(C)O)ncc(OC[C@H]3CCCNC3)c21 | 0.836 | 0.83 |
| CN(c1ncccc1CNc1nc(Nc2ccc3c(c2)CC(=O)N3)ncc1C(F)(F)F)S(C)(=O)=O | 0.795 | 0.89 |
| CN1CCN(C(=O)/C=C/c2ccc([N+](=O)[O-])o2)CC1 | 0.937 | 0.954 |
| CN1CCN(c2ccc(Nc3ncc4cc(C#N)c(=O)n(C5CCCC5)c4n3)cc2)CC1 | 0.852 | 0.98 |
| CNC(=O)c1ccc(Nc2ncc(C(F)(F)F)c(NCc3nccnc3N(C)S(C)(=O)=O)n2)cc1 | 0.761 | 0.897 |
| CNC(=O)c1nn(C)c2c1C(C)(C)Cc1cnc(Nc3ccc(N4CCN(C)CC4)cc3)nc1-2 | 0.783 | 0.776 |
| CNCCN(C)Cc1c[nH]nc1-c1ccc(O[C@H]2C[C@H](OCCC3CCOCC3)C2)cc1 | 0.92 | 0.779 |
| CNc1nc(-c2ccc3c(N)n[nH]c3c2)cc(N2C[C@@H](C(=O)NC3CCCCC3)CC[C@H]2C)n1 | 0.71 | 0.869 |
| CONC(=O)c1ccccc1Nc1cc(Nc2cc(C)nn2C(C)C)ncc1Cl | 0.844 | 0.812 |
| CO[C@@H](C(=O)N1Cc2[nH]nc(NC(=O)c3ccc(N4CCN(C)CC4)cc3)c2C1)c1ccccc1 | 0.611 | 0.766 |
| COc1cc(OC)cc(N(CCNC(C)C)c2ccc3ncc(-c4cnn(C)c4)nc3c2)c1 | 0.893 | 0.927 |
| COc1cc2c(cc1OC)CN(CCc1ccc(NC(=O)c3cccc4c(=O)c5cccc(OC)c5[nH]c34)cc1)CC2 | 0.682 | 1.02 |
| COc1ccc(-c2ccc3c(N4CCOCC4)nc(N4C[C@@H](C)O[C@@H](C)C4)nc3n2)cc1CO | 0.831 | 0.825 |

| SMILES | normalised area under dose-response curve [1] | normalised area under dose-response curve [2] |
| --- | --- | --- |
| CS(=O)(=O)CCNCc1ccc(-c2ccc3ncnc(Nc4ccc(OCc5cccc(F)c5)c(Cl)c4)c3c2)o1 | 0.614 | 0.924 |
| C[C@@H](Oc1cc(-c2cnn(C3CCNCC3)c2)cnc1N)c1c(Cl)ccc(F)c1Cl | 0.799 | 0.772 |
| C[C@@H](Oc1cc(-n2cnc3ccc(CN4CCN(C)CC4)cc32)sc1C(N)=O)c1ccccc1C(F)(F)F | 0.726 | 0.687 |
| C[C@@H]1CN(CC(=O)Nc2ccc3c(c2)Cc2cccc(-c4cc(=O)cc(N5CCOCC5)o4)c2S3)C[C@H](C)O1 | 0.842 | 0.936 |
| C[C@H](NC(=O)CCC(F)(F)F)C(=O)N[C@@H]1C(=O)N(CCO)c2ncccc2-c2ccccc21 | 0.744 | 0.939 |
| C[C@H](NC(=O)Cc1cc(F)cc(F)c1)C(=O)N[C@@H]1C(=O)N(C)c2ccccc2-c2ccccc21 | 0.782 | 0.89 |
| Cc1cc(C)c(CNC(=O)c2cc(-c3ccc(CN4CCOCC4)cc3)cc3c2cnn3C2CCCC2)c(=O)[nH]1 | 0.812 | 0.896 |
| Cc1ccc(C(=O)N(CCCN)[C@@H](c2nc3cc(Cl)ccc3c(=O)n2Cc2ccccc2)C(C)C)cc1 | 0.697 | 0.5 |
| Cc1ccc2nc(CN(CCN(Cc3nc4ccc(C)cc4[nH]3)Cc3nc4ccc(C)cc4[nH]3)Cc3nc4ccc(C)cc4[nH]3)[nH]c2c1 | 0.676 | 1.03 |
| Cc1cccc(-c2nn3c(c2-c2ccnc4ccc(C(N)=O)cc24)CCC3)n1 | 0.965 | 0.968 |
| Cc1cccc(CC(=O)N2CCc3c2ccc(-c2cn(C)c4ncnc(N)c24)c3F)n1 | 0.959 | 0.87 |
| Cc1nc(Nc2n[nH]c3c2CN(C(=O)N[C@H](CN(C)C)c2ccccc2)C3(C)C)c2sccc2n1 | 0.551 | 0.578 |
| Cc1ncc(Cl)cc1NCc1ccc(C(=O)N[C@@H](CC2CCCC2)C(=O)NC2CC2)s1 | 0.865 | 0.923 |
| Cn1cc(-c2ccc3c(c2)CCN3C(=O)Cc2cccc(C(F)(F)F)c2)c2c(N)ncnc21 | 0.852 | 0.915 |
| Cn1cc(-c2cnn3c(N)c(Br)c([C@@H]4CCCNC4)nc23)cn1 | 0.9 | 0.873 |
| Cn1cc(/C=C2\C(=O)Nc3cccnc32)c2ccccc21 | 0.914 | 0.94 |
| Cn1cc(C2=C(c3cn(C4CCN(Cc5ccccn5)CC4)c4ccccc34)C(=O)NC2=O)c2ccccc21 | 0.933 | 0.917 |
| NS(=O)(=O)NCCNc1nonc1/C(=N/O)Nc1ccc(F)c(Br)c1 | 0.909 | 0.924 |
| Nc1[nH]nc2nnc(-c3c(-c4ccccc4)nn4ccccc34)cc12 | 0.849 | 0.847 |
| O=C(O)c1ccc(-c2c[nH]c3ncc(-c4ccccc4)cc23)cc1C1CCCC1 | 0.913 | 0.924 |
| O=C(c1cc(Cc2n[nH]c(=O)c3ccccc23)ccc1F)N1CCN(C(=O)C2CC2)CC1 | 0.865 | 0.917 |
| O=C1NC(=O)C(c2cnc3ccccn23)=C1c1cn2c3c(cc(F)cc13)CN(C(=O)N1CCCCC1)CC2 | 0.259 | 1.04 |
| O=S(=O)(O)c1ccc2cc(N=Nc3cc(S(=O)(=O)O)c4cccnc4c3O)ccc2c1 | 0.831 | 0.938 |
| O=c1cc(-c2cccc3c2Sc2ccccc2S3)oc(N2CCOCC2)c1 | 0.834 | 0.945 |
| O=c1cc(N2CCOCC2)oc2c(-c3cccc4c3sc3ccccc34)cccc12 | 0.878 | 0.991 |
| c1ccc(-c2nn3c(c2-c2ccnc4cc(OCCN5CCOCC5)ccc24)CCC3)nc1 | 0.861 | 0.974 |
| c1ccc2c(CCNc3ccc(Nc4ccncc4)cc3)c[nH]c2c1 | 0.796 | 0.88 |
